Test results from ChEMBL document CHEMBL4002616, “Functionalized triazines as potent HCV entry inhibitors” (Bioorg Med Chem Lett, 2017).

Tests used:
[1] = (§1) Metabolic stability in rat liver microsomes assessed as parent compound remaining after 10 mins; format: ADME, microsome; conditions: liver microsomes, read-out: Stability
[2] = Metabolic stability in human liver microsomes assessed as parent compound remaining after 10 mins; format: ADME, microsome; conditions: read-out: Stability
Liver = experiment: as §1; format: ADME, microsome; conditions: microsomes, 10 min
[3] = Clearance in rat at 2 mg/kg, iv; format: ADME, organism-based; conditions: in vivo
[4] = Plasma half life in rat at 2 mg/kg, iv; format: ADME, organism-based
[5] = Volume of distribution at steady state in rat at 2 mg/kg, iv or 5 mg/kg, po; format: ADME, organism-based; conditions: in vivo, read-out: Vdss
Rattus norvegicus = experiment: AUC in rat at 5 mg/kg, po; format: ADME, organism-based; conditions: in vivo, BLD = below limit of detection

| Structure (SMILES) | remaining at 10 min [1] | remaining at 10 min [2] | other results |
| --- | --- | --- | --- |
| CNC(=O)NCCS(=O)(=O)NC(=O)c1ccc(Nc2nc(NC3(c4ccc(Cl)cc4)CC3)nc(OCC(F)(F)F)n2)cc1 | 100% | 97% |  |
| CC(C)NC(=O)NCCS(=O)(=O)NC(=O)c1ccc(Nc2nc(NC3(c4ccc(Cl)cc4)CC3)nc(OCC(F)(F)F)n2)cc1 | 97% | 100% |  |
| Cc1ccccc1S(=O)(=O)NC(=O)c1ccc(Nc2nc(NC3(c4ccc(Cl)cc4)CC3)nc(OCC(F)(F)F)n2)cc1 | 100% | 100% |  |
| CC(C)NCCS(=O)(=O)NC(=O)c1ccc(Nc2nc(NC3(c4ccc(Cl)cc4)CC3)nc(OCC(F)(F)F)n2)cc1 | 100% | 89% |  |
| CC(C)S(=O)(=O)NC(=O)c1ccc(Nc2nc(NC3(c4ccc(Cl)cc4)CC3)nc(OCC(F)(F)F)n2)cc1 | 96% | 100% |  |
| CN(C)S(=O)(=O)NC(=O)c1ccc(Nc2nc(NC3(c4ccc(Cl)cc4)CC3)nc(OCC(F)(F)F)n2)cc1 | 76% | 86% |  |
| CS(=O)(=O)NC(=O)c1ccc(Nc2nc(NC3(c4ccc(Cl)cc4)CC3)nc(OCC(F)(F)F)n2)cc1 | 85% | 100% |  |
| O=C(NS(=O)(=O)CCNCc1ccccc1)c1ccc(Nc2nc(NC3(c4ccc(Cl)cc4)CC3)nc(OCC(F)(F)F)n2)cc1 | 100% | 99% |  |
| CC(=O)NCCS(=O)(=O)NC(=O)c1ccc(Nc2nc(NC3(c4ccc(Cl)cc4)CC3)nc(OCC(F)(F)F)n2)cc1 | 100% | 95% |  |
| CC(C)(C)NC(=O)NCCS(=O)(=O)NC(=O)c1ccc(Nc2nc(NC3(c4ccc(Cl)cc4)CC3)nc(OCC(F)(F)F)n2)cc1 | 93% | 96% |  |
| CN(C)CCS(=O)(=O)NC(=O)c1ccc(Nc2nc(NC3(c4ccc(Cl)cc4)CC3)nc(OCC(F)(F)F)n2)cc1 | 100% | 89% |  |
| O=C(NS(=O)(=O)CCN1CCOCC1)c1ccc(Nc2nc(NC3(c4ccc(Cl)cc4)CC3)nc(OCC(F)(F)F)n2)cc1 | 97% | 78% |  |
| O=C(NS(=O)(=O)CCNC(=O)C1CC1)c1ccc(Nc2nc(NC3(c4ccc(Cl)cc4)CC3)nc(OCC(F)(F)F)n2)cc1 |  | 90% | Stability (Liver): Not Active |
| CC(C)OC(=O)NCCS(=O)(=O)NC(=O)c1ccc(Nc2nc(NC3(c4ccc(Cl)cc4)CC3)nc(OCC(F)(F)F)n2)cc1 | 73% | 100% |  |
| O=C(NS(=O)(=O)c1ccc(F)cc1)c1ccc(Nc2nc(NC3(c4ccc(Cl)cc4)CC3)nc(OCC(F)(F)F)n2)cc1 | 99% | 100% |  |
| CCN(CC)CCS(=O)(=O)NC(=O)c1ccc(Nc2nc(NC3(c4ccc(Cl)cc4)CC3)nc(OCC(F)(F)F)n2)cc1 | 98% | 99% |  |
| O=C(O)c1ccc(Nc2nc(NC3(c4ccc(Cl)cc4)CC3)nc(OCC(F)(F)F)n2)cc1 | 99% | 89% |  |
| O=C(NS(=O)(=O)c1ccccc1)c1ccc(Nc2nc(NC3(c4ccc(Cl)cc4)CC3)nc(OCC(F)(F)F)n2)cc1 | 100% | 100% |  |
| NCCS(=O)(=O)NC(=O)c1ccc(Nc2nc(NC3(c4ccc(Cl)cc4)CC3)nc(OCC(F)(F)F)n2)cc1 | 100% | 100% |  |

Second part, led by results:

| remaining at 10 min [1] | remaining at 10 min [2] | Structure (SMILES) | other results |
| --- | --- | --- | --- |
| 35% | 74% | CCCCCNc1nc(Nc2ccc([N+](=O)[O-])cc2)nc(OCC(F)(F)F)n1 |  |
| 93% | 92% | CC(C)(C)OC(=O)NCCS(=O)(=O)NC(=O)c1ccc(Nc2nc(NC3(c4ccc(Cl)cc4)CC3)nc(OCC(F)(F)F)n2)cc1 |  |
| 100% | 90% | COC(=O)NCCS(=O)(=O)NC(=O)c1ccc(Nc2nc(NC3(c4ccc(Cl)cc4)CC3)nc(OCC(F)(F)F)n2)cc1 |  |
| 98% | 96% | O=C(NS(=O)(=O)CCN1CCCC1)c1ccc(Nc2nc(NC3(c4ccc(Cl)cc4)CC3)nc(OCC(F)(F)F)n2)cc1 |  |
| 85% | 100% | O=C(NS(=O)(=O)C1CC1)c1ccc(Nc2nc(NC3(c4ccc(Cl)cc4)CC3)nc(OCC(F)(F)F)n2)cc1 |  |
| 90% | 89% | CC(C)(C)CNCCS(=O)(=O)NC(=O)c1ccc(Nc2nc(NC3(c4ccc(Cl)cc4)CC3)nc(OCC(F)(F)F)n2)cc1 | clearance [3]: 22.5 mL/min/kg; half-life [4]: 2.6 h; Vd [5]: 0.6 L/kg; AUC (Rattus norvegicus): Bld |
| 84% | 86% | CC(C)C(=O)NCCS(=O)(=O)NC(=O)c1ccc(Nc2nc(NC3(c4ccc(Cl)cc4)CC3)nc(OCC(F)(F)F)n2)cc1 |  |
| 85% | 100% | CCS(=O)(=O)NC(=O)c1ccc(Nc2nc(NC3(c4ccc(Cl)cc4)CC3)nc(OCC(F)(F)F)n2)cc1 |  |
